# In US10722526B2, “Pharmaceutical compositions for radioprotection or radiomitigation and methods for using them” (KOREA INSTITUTE OF RADIOLOGICAL & MEDICAL SCIENCES, priority 2015, dated 2020):
# Columns and labels:
# [1] = test system: Human pulmonary artery endothelial cells (HPAEC); assay: Immunofluorescence staining of irradiated HPAECs (Example 4); type: cell-based; conditions: 10 ng/mL, 12 hours before 10 Gy radiation
# Description: (§1) Human pulmonary artery endothelial cells (HPAEC) bought from Promocell were cultured in a culture chamber at a temperature of 37° C. under a 5% CO2 condition using a medium including various growth factors necessary for growth of the vascular endothelial cell.
# (§2) HPAECs were plated in 3.5 cm, 6 cm, and 10 cm culture dishes and cultured in a CO2 incubator at 37° C. so that the cells were 70% to 80% confluent. 2-Methoxyestradiol was selectively pre-treated according to the test groups. 10 Gy gamma rays (^137Cs) (Atomic Energy of Canada, LTd., Canada) were radiated at a dose of 3.81 Gy/min.
# HPAECs were cultured on the cover slide, selectively pre-treated with 2-methoxyestradiolin according to test groups, and irradiated. HPAECs were then fixed in 10% neutral formalin for one day, and washed with phosphate buffered saline (PBS) before staining. After blocking with 2% bovine serum albumin (dissolved inPBS) before the first antibody reaction, VE-cadherin, hypoxia-inducible factor 1-alpha (HIF-1α), SMAD, p-SMAD2/3, and α-SMA antibodies, diluted at 1:100, were reacted at 4° C. for 16 hours. After washing with PBS, the second antibodies having fluorescent stains attached were diluted at 1:500 and reacted at 25° C. for 1 hour. The nuclei were stained with a fluorescent stain 4′,6-diamidino-2-phenylindole (DAPI). After washing with PBS, a drop of glycerol was applied to attach the stained cells to the glass slide.
# Human pulmonary artery endothelial cells which received 10 Gy radiation were fixed in 10% neutral formalin, and reacted with phalloidin, CA-9, and VE-cadherin antibodies. Then, fluorescent-labeled secondary immunoglobulins were used to stain CA9, phalloidin, and VE-cadherin in red, green, and white, respectively. The cell nuclei were stained in blue using DAPI. The group received 10 Gy radiation 12 hours after treating HPAECs with 10 ng/mL 2-methoxyestradiol.
# [2] = test system: pulmonary artery endothelium, mouse model with lung cancer (mutated p53 and ras), 16 Gy; assay: Fibrosis of vascular endothelium after irradiation in mouse model with lung cancer (Example 7); type: in vivo; conditions: 150 mg/kg i.p. 1 hour before 16 Gy irradiation, compared to IR
# Description: (§3) Tissue from a mouse was fixed in 10% neutral formalin for one day, and paraffin sections were prepared. The paraffin sections were then reacted for 5 minutes in each of xylene, and 95%, 90%, and 70% ethanol solutions in order to deparaffinize the paraffin around the tissue for staining. The tissue was then put into hematoxylin for 1 minute to stain the nucleus and washed with running water for 10 minutes, followed by dipping in eosin for 30 seconds to stain the cytoplasm. The tissue was then dipped in 50%, 70%, 90%, and 95% ethanol, and xylene in that order, and a drop of a mounting solution was applied thereto. The tissue was covered with a cover slide and observed with a microscope (Carl Zeiss Vision).
# (§4) Tissue from a mouse was fixed in 10% neutral formalin for one day, and paraffin sections were prepared. The paraffin sections were then reacted for 5 minutes in each of xylene, and 95%, 90%, and 70% ethanol solutions in that order to deparaffinize the paraffin around the tissue for staining. For antigen activation, the tissue was soaked in a 0.1 M citric acid solution (pH 6.0) and boiled.
# The tissue was then reacted in Bouin's solution for 1 minute, Weigert's hematoxylin for 10 minutes, phosphotunstic/phosphomolydic acid for 10 minutes, aniline blue for 5 minutes, and 1% acetate for 1 minute in that order. […]
# [3] = test system: p-SMAD, Smad 2/3, α-SMA in HPAECs; assay: Western blot of fibrosis-related proteins in irradiated HPAECs (Example 6); type: cell-based, human; conditions: 12 hours before 10 Gy radiation
# Description: as §1, §2
# After the cultured cells were irradiated, specimens in which the cells were dissolved in a solution of 150 mM sodium chloride, 40 mM Tris-Cl (pH 8.0), 0.1% NP-40 were prepared to observe intracellular proteins. Sodium dodecyl sulfate polyacrylamide gel electrophoresis (SDS-PAGE) was performed on the specimens, followed by Western blot analysis. The proteins separated by electrophoresis were transferred to a nitrocellulose membrane, and the amount of protein expression was analyzed using the immunoblotting method.
# In order to observe changes in the expression amount of the proteins related to HPAEC pulmonary fibrosis according to the concentrations of 2-methoxyestradiol (0.5 μM and 1 μM), the cultured HPAECs were pre-treated with 0.5 μM or 1 μM 2-methoxyestradiol and received 10 Gy radiation 12 hours later. Western blot analysis was then performed using p-SMAD, Smad 2/3, and alpha smooth muscle actin (α-SMA) antibodies. To measure a quantitative amount of the protein, Western blot was performed using β-actin antibodies.
# [4] = test system: pulmonary artery endothelium, C57BL/6 mouse, 16 Gy on the lung; assay: Radiation-induced pulmonary fibrosis in mouse, trichrome staining of collagen (Example 5); type: in vivo; conditions: 150 mg/kg i.p. 1 hour before 16 Gy irradiation of the lung; compared to IR; **: P<0.01
# Description: as §4
# The tissue was then reacted in Bouin's solution for 1 minute, Weigert's hematoxylin for 10 minutes, phosphotunstic/phosphomolydic acid for 10 minutes, aniline blue for 5 minutes, and 1% acetate for 1 minute in that order. After dehydration, the tissue was sealed with a cover glass, and observed with a confocal microscope.
# To observe whether the symptoms of pulmonary fibrosis induced after radiotherapy include pulmonary fibrosis of vascular endothelial cells, a C57BL/6 mouse was exposed to 16 Gy radiation on the lung. The lung was extracted from the mouse, and collagen, a protein appearing on the cross-section of aorta during the fibrosis of pulmonary artery endothelial cell, was detected by trichrome staining. The group treated with 2-methoxyestradiol was intraperitoneally injected in an amount of 150 mg/kg 1 hour before irradiation. […]
# [5] = test system: blood vessels of the skin, C57BL/6 mouse, 20 Gy on the thorax; assay: Radiation-induced in vivo vascular injury of skin (Example 2); conditions: compared to untreated group (IR)
# Description: Tissue from a mouse was fixed in 10% neutral formalin for one day, and paraffin sections were prepared. The paraffin sections were then reacted for 5 minutes in each of xylene, and 95%, 90%, and 70% ethanol solutions in that order to deparaffinize the paraffin around the tissue. For antigen activation, the tissue was immersed in 0.1 M citrate (pH 6.0) and brought to a boil for 30 minutes, followed by reacting with 3% hydrogen peroxide for 15 minutes. Meanwhile, the tissue was then reacted in phosphate based saline buffer (PBS, 0.1% triton x-100 included) including CD31 (abcam, 1:100 dilution) at 4° C. for 16 hours. After washing with PBS, secondary antibodies having biotin conjugated were diluted at 1:200 and incubated at room temperature for 30 minutes. Avidin biotin complex (ABC) was applied and incubated at room temperature for 30 minutes, and 3,3′-DAB(3,3′-diaminobenzidine) was added for color detection. Hematoxylin was used for counterstaining. The tissue was then dipped in 50%, 70%, 90%, and 95% ethanol, and xylene in that order, and a drop of a mounting solution was applied thereto. The tissue was covered with a cover slide and observed with a microscope (Carl Zeiss Vision).
# Skin was extracted from the mouse, and vascular changes inside the skin were observed. […]
# [6] = test system: lung of a mouse model, 90 Gy irradiation; assay: Radiation-induced lung tissue damage, H&E staining (Example 1); type: in vivo; conditions: 60 mg/kg i.p. 1 hour before 90 Gy irradiation; 2 weeks after irradiation; compared to untreated group (IR)
# Description: as §3, with “solutions in that order to” for “solutions in order to”, “around the tissue. The tissue” for “around the tissue for staining. The tissue”
# A mouse was exposed to 90 Gy radiation on the thorax in a size of 3 mm. Lung tissue from the mouse model was fixed in 10% neutral formalin, and paraffin sections were prepared. Using the hematoxylin and eosin staining method, inflammatory reactions and fibrosis of the tissue were observed. The cell nuclei were stained in blue and the cytoplasm was stained in pink. One hour before the irradiation, the mouse model received an intraperitoneal injection of 60 mg/kg 2-methoxyestradiol. Two weeks after the irradiation, inflammatory reactions and fibrosis were observed using H&E staining at the site of tissue damage.
# [7] = test system: skin tissue, C57BL/6 mouse, 20 Gy on the thorax; assay: Radiation-induced in vivo skin damage, infiltration of inflammatory cells (Example 3); conditions: 2 weeks after irradiation, compared to IR
# Description: as §3, with “solutions in that order to” for “solutions in order to”, “around the tissue. The tissue” for “around the tissue for staining. The tissue”
# To observe whether inflammatory responses and fibrosis of skin occur during tissue damage induced after radiotherapy, a C57BL/6 mouse was exposed to 20 Gy radiation on the thorax in a size of 7 mm. Skin was extracted from the mouse, and infiltration of inflammatory cells in the skin tissue was observed. The group pre-treated with 2-methoxyestradiol (IR+pre-treatment2Me) received an intraperitoneal injection in an amount of 60 mg/kg 1 hour before the irradiation, and that post-treated with 2-methoxyestradiol (IR+post-treatment2Me) received an intraperitoneal injection in an amount of 60 mg/kg 24 hours after the irradiation.
# [8] = 1 μM, decrease in particular at 1 μM
# [9] = post-treated: 60 mg/kg i.p. 24 hours after 20 Gy irradiation
# [10] = pre-treated: 60 mg/kg i.p. 1 hour before 20 Gy irradiation
smiles,measurement,setting,value
COc1cc2c(cc1O)CC[C@@H]1[C@@H]2CC[C@]2(C)[C@@H](O)CC[C@@H]12 [2-methoxyestradiol],"CA-9 staining, immunofluorescence",[1],significant decrease
same,"VE-cadherin (white around the cell membrane), immunofluorescence",[1],significant increase
same,"phalloidin staining, immunofluorescence",[1],significant decrease
same,"collagen stained in blue around the vascular endothelium, trichrome staining",[2],significant decrease
same,"Smad 2/3 expression, Western blot",[3]; 0.5 μM,relative decrease
same,"p-SMAD expression, Western blot",[3]; 0.5 μM,relative decrease
same,"α-SMA expression, Western blot",[3]; 0.5 μM,relative decrease
same,"Smad 2/3 expression, Western blot",[3]; [8],relative decrease
same,"p-SMAD expression, Western blot",[3]; [8],relative decrease
same,"α-SMA expression, Western blot",[3]; [8],relative decrease
same,"collagen stained in blue in the aortic wall, trichrome staining",[4],significant decrease
same,skin vascular injury,[5]; [9],significant reduction
same,skin vascular injury,[5]; [10],significant reduction
same,"cell infiltration (inflammatory cells) in lung tissue, H&E staining",[6],significantly reduced
same,"fibrosis around blood vessels in lung tissue, H&E staining",[6],significantly reduced
same,number of infiltrated inflammatory cells inside the skin tissue,[7]; [9],significantly reduced
same,number of infiltrated inflammatory cells inside the skin tissue,[7]; [10],significantly reduced
